Experimental data published in patent US20230346272A1 (priority 2021, published 2023).

Test: Differential Pulse Voltammetry (DPV) with microneedle sensor array, oxycodone and metabolites (FIG. 10)
Type: physicochemical
Details: applied voltages from 0 to 1.2V

Row | SMILES | current peak (DPV) | voltage of the current peak (DPV)
1 | COc1ccc2c3c1O[C@H]1C(=O)CC[C@@]4(O)[C@@H](C2)NCC[C@]314 [noroxycodone] | about 165 μA | about 0.95 V
2 | COc1ccc2c3c1O[C@H]1C(=O)CC[C@@]4(O)[C@@H](C2)N(C)CC[C@]314 [oxycodone] | about 100 μA | about 0.75 V
3 | CN1CC[C@]23c4c5ccc(O)c4O[C@H]2C(=O)CC[C@@]3(O)[C@H]1C5 [oxymorphone] | about 30 μA | about 0.45 V
